# Measurements taken from patent US20210024542A1 (Torcept Therapeutics, Inc., priority 2018, published 2021).
# Read-outs that look alike come from different tables or passages of the source.
# Tests used:
# CAMA-1 = experiment: OncoPanel cell proliferation assay, CAMA-1; conditions: for Relative cell count (%) Mean: CAMA-1
# Procedure: (§6) Cells were seeded into 384-well plates and incubated in a humidified atmosphere of 5% CO2 at 37° C. Compounds were added the day following cell seeding. At the same time, a time zero untreated cell plate was generated. After a 3-day incubation period, cells were fixed and stained to allow fluorescence imaging of nuclei. Compounds (1 mM stock solutions) were serially diluted in half-log steps from the highest test concentration (1 micromol), and assayed over 10 concentrations with a maximum assay concentration of 0.1% DMSO. Automated fluorescence microscopy was carried out using a Molecular Devices ImageXpress Micro XL high-content imager, and images were collected with a 4× objective. 16-bit TIFF images were acquired and analyzed with MetaXpress 5.1.0.41 software.
# (§7) GI50 is the concentration needed to reduce the observed growth by half (midway between the curve maximum and the time zero value). […] In rare instances, values <0 or >10 may be observed. […] Curve-fitting, calculations, and report generation was performed using a custom data reduction engine and MathIQ based software (AIM).
# OVCAR3 = experiment: OncoPanel cell proliferation assay, OVCAR3; conditions: for Relative cell count (%) Mean: OVCAR3
# Procedure: as §6, §7
# SK-NEP-1 = experiment: OncoPanel cell proliferation assay, SK-NEP-1; conditions: for Relative cell count (%) Mean: SK-NEP-1
# Procedure: as §6, §7
# SCaBER = experiment: OncoPanel cell proliferation assay, SCaBER; format: cell-based, human
# Procedure: (§1) Cells were grown in RPMI 1640, 10% FBS, 2 mM L-alanyl-L-glutamine, 1 mM Na pyruvate, or a special medium. Cells were seeded into 384-well plates and incubated in a humidified atmosphere of 5% CO2 at 37° C. Compounds were added the day following cell seeding. At the same time, a time zero untreated cell plate was generated. After a 3-day incubation period, cells were fixed and stained to allow fluorescence imaging of nuclei. Compounds (1 mM stock solutions) were serially diluted in half-log steps from the highest test concentration ([…]), and assayed over 10 concentrations with a maximum assay concentration of 0.1% DMSO. Automated fluorescence microscopy was carried out using a Molecular Devices ImageXpress Micro XL high-content imager, and images were collected with a 4× objective. 16-bit TIFF images were acquired and analyzed with MetaXpress 5.1.0.41 software.
# (§2) Cell proliferation was measured by the fluorescence intensity of an incorporated nuclear dye. The output is referred to as the relative cell count, where the measured nuclear intensity is transformed to percent of control (POC) using the following formula: […]
# (§3) Cellular response parameters were calculated using nonlinear regression to a sigmoidal single-site dose response model:
# (§4) Where y is a response measured at concentration x, A and B are the lower and upper limits of the response, C is the concentration at the response midpoint (EC50), and D is the Hill Slope (Ref. 1).
# (§5) EC50 is the test compound concentration at the curve inflection point or half the effective response (parameter C of the fitted curve solution). GI50 is the concentration needed to reduce the observed growth by half (midway between the curve maximum and the time zero value). “Cell Count Activity Area” is an estimate of the integrated area above the curve (Barretina, et al. The Cancer Cell Line Encyclopedia enables predictive modelling of anticancer drug sensitivity. Nature 483: 603-607). […] In rare instances, values <0 or >10 may be observed. […] Curve-fitting, calculations, and report generation was performed using a custom data reduction engine and MathIQ based software (AIM).
# NCI-H510A = experiment: OncoPanel cell proliferation assay, NCI-H510A; format: cell-based, human
# Procedure: as §1, §2, §3, §4, §5
# A431 = experiment: OncoPanel cell proliferation assay, A431; format: cell-based, human; conditions: for Relative cell count (%) Mean: A431
# Procedure: as §1, §2, §3, §4, §5
# [1] = Homo sapiens, 72 h, 3-day incubation, read-out: Cell Count EC50
# [2] = Homo sapiens, 72 h, 3-day incubation, read-out: Cell Count GI50
# [3] = Homo sapiens, 72 h, 3-day incubation, read-out: Cell Count IC50
structure (smiles),measurement,setting,value
"CO[C@H]1C[C@@H]2CC[C@@H](C)[C@@](O)(O2)C(=O)C(=O)N2CCCC[C@H]2C(=O)O[C@H]([C@H](C)C[C@@H]2C[C@@H]3C[C@H]2C[C@H]3O)CC(=O)[C@H](C)/C=C(\C)[C@@H](O)[C@@H](OC)C(=O)[C@H](C)C[C@H](C)/C=C/C=C/C=C/1C [Formula I, 37R-hydroxynorbornylrapamycin]",Cell Count Activity Area,"CAMA-1; CAMA-1, scale 0-10",4.42
same,Relative cell count (%) Mean,CAMA-1; 1.00E+00 microM,44.1%
same,Relative cell count (%) Mean,CAMA-1; 1.00E−01 microM,45.8%
same,Relative cell count (%) Mean,CAMA-1; 1.00E−02 microM,51.2%
same,Relative cell count (%) Mean,CAMA-1; 1.00E−03 microM,53.9%
same,Relative cell count (%) Mean,CAMA-1; 1.01E−04 microM,86.0%
same,Relative cell count (%) Mean,CAMA-1; 3.16E−01 microM,46.2%
same,Relative cell count (%) Mean,CAMA-1; 3.17E−02 microM,48.8%
same,Relative cell count (%) Mean,CAMA-1; 3.17E−03 microM,50.2%
same,Relative cell count (%) Mean,CAMA-1; 3.18E−04 microM,66.1%
same,Relative cell count (%) Mean,CAMA-1; 3.18E−05 microM,97.5%
same,EC50,"CAMA-1; Homo sapiens, CAMA-1, 72 h, read-out: Cell Count EC50",0.174 nM
same,GI50,"CAMA-1; Homo sapiens, CAMA-1, 72 h, read-out: Cell Count GI50",0.239 nM
same,IC50,"CAMA-1; Homo sapiens, CAMA-1, 72 h, read-out: Cell Count IC50",1.28 nM
same,EC50,OVCAR3; Homo sapiens,650 nM
same,EC50,"OVCAR3; Homo sapiens, OVCAR-3, 72 h, read-out: Cell Count EC50",646 nM
same,GI50,"OVCAR3; Homo sapiens, OVCAR-3, 72 h, read-out: Cell Count GI50",65.8 nM
same,IC50,"OVCAR3; Homo sapiens, OVCAR-3, 72 h, read-out: Cell Count IC50",> 1000 nM
same,Cell Count Activity Area,"OVCAR3; OVCAR3, scale 0-10",2.43
same,Relative cell count (%) Mean,OVCAR3; 1.00E+00 microM,61.8%
same,Relative cell count (%) Mean,OVCAR3; 1.00E−01 microM,72.8%
same,Relative cell count (%) Mean,OVCAR3; 1.00E−02 microM,85.0%
same,Relative cell count (%) Mean,OVCAR3; 1.00E−03 microM,90.2%
same,Relative cell count (%) Mean,OVCAR3; 1.01E−04 microM,93.3%
same,Relative cell count (%) Mean,OVCAR3; 3.16E−01 microM,61.7%
same,Relative cell count (%) Mean,OVCAR3; 3.17E−02 microM,79.9%
same,Relative cell count (%) Mean,OVCAR3; 3.17E−03 microM,85.2%
same,Relative cell count (%) Mean,OVCAR3; 3.18E−04 microM,89.7%
same,Relative cell count (%) Mean,OVCAR3; 3.18E−05 microM,106.9%
same,EC50,"SK-NEP-1; Homo sapiens, SK-NEP-1, 72 h, read-out: Cell Count EC50",0.706 nM
same,GI50,"SK-NEP-1; Homo sapiens, SK-NEP-1, 72 h, read-out: Cell Count GI50",0.747 nM
same,IC50,"SK-NEP-1; Homo sapiens, SK-NEP-1, 72 h, read-out: Cell Count IC50",2.42 nM
same,Cell Count Activity Area,"SK-NEP-1; SK-NEP-1, scale 0-10",4.35
same,Relative cell count (%) Mean,SK-NEP-1; 1.00E+00 microM,35.6%
same,Relative cell count (%) Mean,SK-NEP-1; 1.00E−01 microM,38.6%
same,Relative cell count (%) Mean,SK-NEP-1; 1.00E−02 microM,45.3%
same,Relative cell count (%) Mean,SK-NEP-1; 1.00E−03 microM,63.5%
same,Relative cell count (%) Mean,SK-NEP-1; 1.01E−04 microM,100.0%
same,Relative cell count (%) Mean,SK-NEP-1; 3.16E−01 microM,35.6%
same,Relative cell count (%) Mean,SK-NEP-1; 3.17E−02 microM,40.0%
same,Relative cell count (%) Mean,SK-NEP-1; 3.17E−03 microM,48.8%
same,Relative cell count (%) Mean,SK-NEP-1; 3.18E−04 microM,83.9%
same,Relative cell count (%) Mean,SK-NEP-1; 3.18E−05 microM,99.4%
same,Relative cell count (%) Mean,SCaBER; 1.00E+00 microM,32.4%
same,Relative cell count (%) Mean,SCaBER; 1.00E−01 microM,36.9%
same,Relative cell count (%) Mean,SCaBER; 1.00E−02 microM,35.4%
same,Relative cell count (%) Mean,SCaBER; 1.00E−03 microM,44.7%
same,Relative cell count (%) Mean,SCaBER; 1.01E−04 microM,61.7%
same,Relative cell count (%) Mean,SCaBER; 3.16E−01 microM,33.0%
same,Relative cell count (%) Mean,SCaBER; 3.17E−02 microM,34.0%
same,Relative cell count (%) Mean,SCaBER; 3.17E−03 microM,38.7%
same,Relative cell count (%) Mean,SCaBER; 3.18E−04 microM,55.4%
same,Relative cell count (%) Mean,SCaBER; 3.18E−05 microM,81.9%
same,EC50,SCaBER; [1],0.0947 nM
same,GI50,SCaBER; [2],0.262 nM
same,IC50,SCaBER; [3],0.451 nM
same,EC50,"SCaBER; Homo sapiens, Table 4 summary, Bladder, read-out: EC50",0.095 nM
same,Cell Count Activity Area,SCaBER; scale 0-10,5.46
same,Relative cell count (%) Mean,NCI-H510A; 1.00E+00 microM,66.2%
same,Relative cell count (%) Mean,NCI-H510A; 1.00E−01 microM,62.8%
same,Relative cell count (%) Mean,NCI-H510A; 1.00E−02 microM,69.5%
same,Relative cell count (%) Mean,NCI-H510A; 1.00E−03 microM,68.9%
same,Relative cell count (%) Mean,NCI-H510A; 1.01E−04 microM,77.7%
same,Relative cell count (%) Mean,NCI-H510A; 3.16E−01 microM,66.3%
same,Relative cell count (%) Mean,NCI-H510A; 3.17E−02 microM,64.7%
same,Relative cell count (%) Mean,NCI-H510A; 3.17E−03 microM,72.2%
same,Relative cell count (%) Mean,NCI-H510A; 3.18E−04 microM,70.5%
same,Relative cell count (%) Mean,NCI-H510A; 3.18E−05 microM,75.7%
same,EC50,NCI-H510A; [1],0.00399 nM
same,GI50,NCI-H510A; [2],0.83 nM
same,IC50,NCI-H510A; [3],> 1000 nM
same,EC50,"NCI-H510A; Homo sapiens, Table 4 summary, Small cell lung cancer, read-out: EC50",0.004 nM
same,Cell Count Activity Area,NCI-H510A; scale 0-10,3.05
same,Cell Count Activity Area,"A431; A431, scale 0-10",1.96
same,Relative cell count (%) Mean,A431; 1.00E+00 microM,64.2%
same,Relative cell count (%) Mean,A431; 1.00E−01 microM,72.8%
same,Relative cell count (%) Mean,A431; 1.00E−02 microM,84.2%
same,Relative cell count (%) Mean,A431; 1.00E−03 microM,93.5%
same,Relative cell count (%) Mean,A431; 1.01E−04 microM,101.0%
same,Relative cell count (%) Mean,A431; 3.16E−01 microM,66.5%
same,Relative cell count (%) Mean,A431; 3.17E−02 microM,78.2%
same,Relative cell count (%) Mean,A431; 3.17E−03 microM,84.4%
same,Relative cell count (%) Mean,A431; 3.18E−04 microM,91.9%
same,Relative cell count (%) Mean,A431; 3.18E−05 microM,104.6%
same,EC50,"A431; Homo sapiens, A-431, 72 h, A431, 3-day incubation, read-out: Cell Count EC50",14.3 nM
same,GI50,"A431; Homo sapiens, A-431, 72 h, A431, 3-day incubation, read-out: Cell Count GI50",> 1000 nM
